The NIST ThermoML archive (doi:10.1021/je060271a)

Settings: 283.14 K, Liquid, Vibrating tube method

CCCCCCC(=O)OCC(COC(=O)CCCCCC)(COC(=O)CCCCCC)COC(=O)CCCCCC [pentaerythritol tetraheptanoate]
Settings | mass density [kg/m3]
13797 kPa | 993.7
13815 kPa | 993.7
13832 kPa | 993.7
13850 kPa | 993.7
13872 kPa | 993.7
13889 kPa | 993.7
13907 kPa | 993.7
13928 kPa | 993.7
13946 kPa | 993.7
13964 kPa | 993.7
13985 kPa | 993.7
14003 kPa | 993.7
14021 kPa | 993.7
14043 kPa | 993.7
14061 kPa | 993.8
14079 kPa | 993.9
14098 kPa | 993.8
14120 kPa | 993.8
14138 kPa | 993.9
14160 kPa | 993.9
14178 kPa | 993.9
14197 kPa | 993.9
14216 kPa | 993.8
14238 kPa | 993.9
14256 kPa | 993.9
14278 kPa | 993.9
14297 kPa | 993.9
14316 kPa | 993.9
14339 kPa | 994
14358 kPa | 994
14377 kPa | 993.9
14396 kPa | 993.9
14419 kPa | 993.9
14438 kPa | 994
14458 kPa | 994
14480 kPa | 994
14500 kPa | 994
14523 kPa | 994
14542 kPa | 994.1
14561 kPa | 994
14585 kPa | 994.1
14605 kPa | 994.1
14625 kPa | 994.1
14645 kPa | 994
14668 kPa | 994.1
14688 kPa | 994.1
14708 kPa | 994.1
14733 kPa | 994.2
14752 kPa | 994.2
14772 kPa | 994.3
14797 kPa | 994
14817 kPa | 994.3
14838 kPa | 994.2
14863 kPa | 994.2
14884 kPa | 994.2
14905 kPa | 994.2
14926 kPa | 994.3
14946 kPa | 994.2
14971 kPa | 994.3
14991 kPa | 994.2
15016 kPa | 994.3
15037 kPa | 994.2
15057 kPa | 994.4
15083 kPa | 994.4
15104 kPa | 994.4
15125 kPa | 994.4
15151 kPa | 994.5
15173 kPa | 994.4
15194 kPa | 994.3
15216 kPa | 994.4
15242 kPa | 994.5
15263 kPa | 994.4
15285 kPa | 994.5
15310 kPa | 994.4
15332 kPa | 994.4
15354 kPa | 994.5
15567 kPa | 994.5
15589 kPa | 994.5
15616 kPa | 994.6
15638 kPa | 994.6
15661 kPa | 994.7
15689 kPa | 994.7
15711 kPa | 994.7
15734 kPa | 994.7
15762 kPa | 994.7
15785 kPa | 994.6
15808 kPa | 994.8
15836 kPa | 994.7
15860 kPa | 994.8
15883 kPa | 994.8
15911 kPa | 994.9
15934 kPa | 994.7
15958 kPa | 994.8
15982 kPa | 994.8
16010 kPa | 994.9
16034 kPa | 994.8
16062 kPa | 995
16087 kPa | 995
16111 kPa | 994.9
16139 kPa | 994.9
16164 kPa | 994.9
16188 kPa | 994.8
16212 kPa | 994.9
16242 kPa | 994.9
16266 kPa | 995.1
16291 kPa | 994.9
16321 kPa | 994.9
16345 kPa | 995
16375 kPa | 995
16400 kPa | 995
16425 kPa | 995.1
16450 kPa | 995.1
16481 kPa | 995
16506 kPa | 995.1
16531 kPa | 995.1
16587 kPa | 995.1
16617 kPa | 995.2
16669 kPa | 995.1
16725 kPa | 995.2
16752 kPa | 995.2
16779 kPa | 995.3
16810 kPa | 995.3
16836 kPa | 995.2
16868 kPa | 995.2
16894 kPa | 995.4
16921 kPa | 995.3
16953 kPa | 995.3
16980 kPa | 995.4
17007 kPa | 995.4
17035 kPa | 995.4
17068 kPa | 995.4
17095 kPa | 995.5
17124 kPa | 995.4
17152 kPa | 995.4
17180 kPa | 995.5
17214 kPa | 995.3
17241 kPa | 995.5
17269 kPa | 995.5
17363 kPa | 995.5
17449 kPa | 995.6
17484 kPa | 995.7
17513 kPa | 995.5
17543 kPa | 995.7
17572 kPa | 995.6
17607 kPa | 995.7
17636 kPa | 995.8
17666 kPa | 995.6
17700 kPa | 995.7
17729 kPa | 995.8
17759 kPa | 995.8
17794 kPa | 995.8
17824 kPa | 995.7
17854 kPa | 995.8
17890 kPa | 995.9
17920 kPa | 995.8
17950 kPa | 995.9
17986 kPa | 995.8
18017 kPa | 995.9
18048 kPa | 996
18085 kPa | 995.9
18116 kPa | 995.9
18147 kPa | 995.9
18184 kPa | 995.9
18215 kPa | 996
18247 kPa | 996
18278 kPa | 996
18316 kPa | 995.9
18348 kPa | 996
18380 kPa | 996.1
18419 kPa | 996.1
18450 kPa | 996.2
18489 kPa | 996.2
18522 kPa | 996.1
18554 kPa | 996.1
18586 kPa | 996.1
18625 kPa | 996.3
18658 kPa | 996.3
18697 kPa | 996.3
18731 kPa | 996.2
18764 kPa | 996.3
18805 kPa | 996.3
18839 kPa | 996.3
18873 kPa | 996.3
18908 kPa | 996.4
18950 kPa | 996.4
18986 kPa | 996.4
19030 kPa | 996.4
19067 kPa | 996.3
19105 kPa | 996.5
19144 kPa | 996.5
19165 kPa | 996.5
19176 kPa | 996.5
19199 kPa | 996.5
19220 kPa | 996.4
19241 kPa | 996.6
19262 kPa | 996.5
19288 kPa | 996.7
19308 kPa | 996.5
19333 kPa | 996.6
19354 kPa | 996.5
19376 kPa | 996.7
19396 kPa | 996.7
19422 kPa | 996.6
19443 kPa | 996.8
19465 kPa | 996.7
19491 kPa | 996.7
19512 kPa | 996.7
19538 kPa | 996.8
19560 kPa | 996.7
19582 kPa | 996.6
19604 kPa | 996.8
19630 kPa | 996.7
19652 kPa | 996.7
19675 kPa | 996.7
19697 kPa | 996.7
19746 kPa | 996.8
19769 kPa | 996.8
19796 kPa | 996.9
19818 kPa | 996.8
19841 kPa | 996.8
19863 kPa | 996.9
19890 kPa | 996.9
19912 kPa | 996.9
